From patent US20220174947A1, “ANTIMICROBIAL MIXTURE CONTAINING 4-(3-ETHOXY-4-HYDROXYPHENYL)BUTAN-2-ONE AND AN ALCOHOL COMPOUND, AND COSMETIC COMPOSITION CONTAINING SAME” (L'OREAL, priority 2018, published 2022)

How the values were obtained:
Assay in all cases: Synergistic antimicrobial activity as MIC, 96-well microplate, optical density at 620 nm
Assay type in all cases: cell-based
[1] = system: Aspergillus niger ATCC 6275; settings: for % MIC of A alone: Aspergillus niger, growth <= 25%
From the text: (§1) FIC Index=(MIC of A with B/MIC of A)+(MIC of B with A/MIC of B [Math. 1]
(§2) with: • MIC of A with B: minimum concentration of product A in the combination A+B which makes it possible to obtain an inhibitory effect; • MIC of B with A: minimum concentration of product B in the combination A+B which makes it possible to obtain an inhibitory effect; • MIC of A: minimum inhibitory concentration of product A alone; • MIC of B: minimum inhibitory concentration of product B alone. This formula was described for the first time in the article by F. C. Kull, P. C. Eisman, H. D. Sylwestrowka, and R. L. Mayer, Applied Microbiology 9:538-541, 1961.
The microbial strain Aspergillus niger ATCC 6275, and a double-concentration Sabouraud broth liquid culture medium supplemented with polyoxyethylenated (20 OE) sorbitan monopalmitate (Tween 40 from Croda) and Phytagel© BioReagent were used (i.e. a mixture of 5 g of Phytagel+0.6 g of Tween 40+60 g of Sabouraud broth).
(§3) A 96-well microplate at an incubation temperature of 32.5° C. is used.
(§4) The incubation time of the microplate is: • from 24 to 30 h under aerobic conditions for microbial Aspergillus niger ATCC 6275; • from 18 to 24 h under aerobic conditions for Candida albicans ATCC 10231, Pseudomonas aeruginosa ATCC 9027 and Staphylococcus aureus ATCC 6538; • from 24 to 48 h under aerobic conditions for Enterococcus faecalis ATCC 33186.
(§5) For each compound: A=4-(3-ethoxy-4-hydroxyphenyl) butan-2-one compound B=alcohol compound A 10% (weight/volume) stock solution was prepared by mixing 1 g of compound in 9 ml of aqueous 1% agar solution. Successive dilutions were made with the 1% agar solution.
(§6) 50 μl of each of the daughter solutions obtained containing compound A or B are added to the microplate wells. 100 μl of Sabouraud liquid nutrient broth inoculated at double concentration with the Aspergillus niger strain and 50 μl of aqueous 1% agar solution are also added thereto.
(§7) 50 μl of each of the daughter solutions obtained containing compound A and 50 μl of each of the daughter solutions obtained containing compound B are added to the microplate wells. 100 μl of Sabouraud liquid nutrient broth inoculated at double concentration with the strain Aspergillus niger are also added thereto.
(§8) A positive microbial growth control was also prepared. The positive microbial growth control corresponds to a mixture of 100 μl of aqueous 1% agar solution with 100 μl of Sabouraud liquid nutrient broth inoculated at double concentration with the strain Aspergillus niger in the absence of compounds A and B.
(§9) An absorbance control was performed in parallel on compounds A and B alone. This control corresponds to 100 μl of double concentration sterile Sabouraud liquid nutrient broth+100 μl of double concentration compound A or B.
(§10) In the three cases (absorbance control, growth control and test), the final volume present in each of the microplate wells is 200 μl.
In the two cases (test and control), the inoculum represents the concentration of the Aspergillus niger strain present in the final volume of the wells (200 μl) and is between 2 and 6×10^5 cfu/ml of Aspergillus niger.

[2] = system: Enterococcus faecalis ATCC 33186; settings: for % MIC of A alone: Enterococcus faecalis, growth <= 25%
From the text: as §1, §2
The microbial strain Enterococcus faecalis ATCC 33186 and a double-concentration BHI (Brain Heart Infusion) broth liquid culture medium were used.
as §3, §4, §5, §6, §7, §8, §9, §10
The test as described above (tests, absorbance control and growth control) was performed again to test the combination A+B on the following strains Enterococcus faecalis, Staphylococcus aureus, Pseudomonas aeruginosa, Candida albicans, where appropriate.

[3] = system: Candida albicans ATCC 10231; settings: for microbial growth percentage: 0 B5 weight %
From the text: with: • MIC of A with B: minimum concentration of product A in the combination A+B which makes it possible to obtain an inhibitory effect; • MIC of B with A: minimum concentration of product B in the combination A+B which makes it possible to obtain an inhibitory effect; • MIC of A: minimum inhibitory concentration of product A alone; • MIC of B: minimum inhibitory concentration of product B alone. This formula was described for the first time in the article by F. C. Kull, […], and R. L. Mayer, Applied Microbiology 9:538-541, 1961. […] When the FIC index value is less than or equal to 1, it is considered that the combination of test compounds has a synergistic effect. […] A 96-well microplate at an incubation temperature of 32.5° C. is used. […] For each compound: […] 50 μl of each of the daughter solutions obtained containing compound A and 50 μl of each of the daughter solutions obtained containing compound B are added to the microplate wells. 100 μl of Sabouraud liquid nutrient broth inoculated at double concentration with the strain Aspergillus niger are also added thereto. A positive microbial growth control was also prepared. […] An absorbance control was performed in parallel on compounds A and B alone. This control corresponds to 100 μl of double concentration sterile Sabouraud liquid nutrient broth+100 μl of double concentration compound A or B. […] The test as described above (tests, absorbance control and growth control) was performed again to test the combination A+B on the following strains Enterococcus faecalis, Staphylococcus aureus, Pseudomonas aeruginosa, Candida albicans, where appropriate.

CCOc1cc(CCC(C)=O)ccc1O [A, 4-(3-ethoxy-4-hydroxyphenyl)butan-2-one]
microbial growth percentage ([1]; 0.025 A, 0 B1 weight %): 82%
microbial growth percentage ([1]; 0.025 A, 0 B3 weight %): 45%
microbial growth percentage ([1]; 0.025 A, 0 B5 weight %): 55%
microbial growth percentage ([1]; 0.05 A, 0 B1 weight %): 43%
microbial growth percentage ([1]; 0.05 A, 0 B3 weight %): 35%
microbial growth percentage ([1]; 0.05 A, 0 B5 weight %): 32%
microbial growth percentage ([1]; 0.1 A, 0 B1 weight %): 5%
microbial growth percentage ([1]; 0.1 A, 0 B3 weight %): 14%
microbial growth percentage ([1]; 0.1 A, 0 B5 weight %): 16%
% MIC of A alone ([1]; Example 1): 0.1%
% MIC of A alone ([1]; Example 3): 0.1%
% MIC of A alone ([1]; Example 5): 0.1%
microbial growth percentage ([2]; 0.0625 A, 0 B3 weight %): 70%
microbial growth percentage ([2]; 0.0625 A, 0 B4 weight %): 44%
microbial growth percentage ([2]; 0.0625 A, 0 B6 weight %): 35%
microbial growth percentage ([2]; 0.125 A, 0 B3 weight %): 31%
microbial growth percentage ([2]; 0.125 A, 0 B4 weight %): 39%
microbial growth percentage ([2]; 0.125 A, 0 B6 weight %): 43%
microbial growth percentage ([2]; 0.25 A, 0 B3 weight %): 27%
microbial growth percentage ([2]; 0.25 A, 0 B4 weight %): 38%
microbial growth percentage ([2]; 0.25 A, 0 B6 weight %): 34%
microbial growth percentage ([2]; 0.5 A, 0 B3 weight %): 14%
microbial growth percentage ([2]; 0.5 A, 0 B4 weight %): 12%
microbial growth percentage ([2]; 0.5 A, 0 B6 weight %): 0%
% MIC of A alone ([2]; Example 3): 0.5%
% MIC of A alone ([2]; Example 4): 0.5%
% MIC of A alone ([2]; Example 6): 0.5%
microbial growth percentage ([3]; 0.025 A): 69%
microbial growth percentage ([3]; 0.05 A): 54%
microbial growth percentage ([3]; 0.1 A): 27%
microbial growth percentage ([3]; 0.2 A): 4%
% MIC of A alone ([3]; Candida albicans, Example 5, growth <= 25%): 0.2%
